Reference: patent US20230183193A1, “4-DIFLUOROMETHYL BENZOYL AMIDES WITH HERBICIDAL ACTION” (BAYER CROPSCIENCE AKTIENGESELLSCHAFT, priority 2017, published 2023)

What was measured:
[1] = system: Abutilon theophrasti; assay: Pre-emergence herbicidal action, ABUTH; format: in vivo; conditions: for Herbicidal efficacy against ABUTH: Table K; for herbicidal activity ABUTH: scored visually after 3 weeks vs untreated controls
Method in brief: (§1)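 Percent herbicidal activity rated by eye 3 weeks after pre-emergence soil-surface application, compared with untreated pots. Seeds sat under sandy loam; sprays carried 0.2% wetting agent.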

[2] = system: Alopecurus myosuroides; assay: Pre-emergence herbicidal action, ALOMY; format: in vivo; conditions: for herbicidal activity ALOMY: dosage 320 g/ha, scored visually after 3 weeks vs untreated controls
Method in brief: as §1

[3] = system: Amaranthus retroflexus; assay: Pre-emergence herbicidal action, AMARE; format: in vivo; conditions: dosage 320 g/ha, scored visually after 3 weeks vs untreated controls
Method in brief: as §1

[4] = system: Avena fatua; assay: Pre-emergence herbicidal action, AVEFA; format: in vivo; conditions: for herbicidal activity AVEFA: dosage 320 g/ha, scored visually after 3 weeks vs untreated controls
Method in brief: as §1

[5] = system: Cyperus serotinus; assay: Pre-emergence herbicidal action, CYPES; format: in vivo; conditions: for herbicidal activity CYPES: dosage 320 g/ha, scored visually after 3 weeks vs untreated controls
Method in brief: as §1

[6] = system: Matricaria inodora; assay: Pre-emergence herbicidal action, MATIN; format: in vivo; conditions: for Herbicidal efficacy against MATIN: Table K; for herbicidal activity MATIN: scored visually after 3 weeks vs untreated controls
Method in brief: as §1

[7] = system: Polygonum convolvulus; assay: Pre-emergence herbicidal action, POLCO; format: in vivo; conditions: Table K
Text: 1. Pre-Emergence Herbicidal Action Against Harmful Plants Seeds of monocotyledonous and dicotyledonous weed plants and crop plants are laid out in sandy loam soil in wood-fiber pots and covered with soil. The compounds of the invention, formulated in the form of wettable powders (WP) or as emulsion concentrates (EC), are then applied to the surface of the covering soil in the form of an aqueous suspension or emulsion at a water application rate equating to […], with addition of 0.2% wetting agent. After the treatment, the pots are placed in a greenhouse and kept under good growth conditions for the trial plants. The damage to the test plants is scored visually after a test period of 3 weeks by comparison with untreated controls (herbicidal activity in percent (%): 100% activity=the plants have died, 0% activity=like control plants).
For comparison, the herbicidal activity of numerous compounds according to the invention was tested with the structurally closest compounds known from the documents WO 2011/035874, WO 2012/028579 and WO 2012/126932, by the pre- and post-emergence method.

[8] = system: Setaria viridis; assay: Pre-emergence herbicidal action, SETVI; format: in vivo; conditions: for herbicidal activity SETVI: dosage 320 g/ha, scored visually after 3 weeks vs untreated controls
Method in brief: as §1

[9] = system: Stellaria media; assay: Pre-emergence herbicidal action, STEME; format: in vivo; conditions: dosage 320 g/ha, scored visually after 3 weeks vs untreated controls
Method in brief: as §1

[10] = system: Viola tricolor; assay: Pre-emergence herbicidal action, VIOTR; format: in vivo; conditions: for Herbicidal efficacy against VIOTR: Table K; for herbicidal activity VIOTR: scored visually after 3 weeks vs untreated controls
Method in brief: as §1

[11] = system: Abutilon theophrasti; assay: Post-emergence herbicidal action, ABUTH; format: in vivo; conditions: 80 g/ha, Table D
Method in brief: (§2)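 Greenhouse-grown weeds in sandy loam, treated at the one-leaf stage 2 to 3 weeks after sowing with WP or EC formulations sprayed as aqueous suspension/emulsion at 600 to […] water plus 0.2% wetting agent. Visual scoring after about 3 weeks versus untreated controls, 0% (like control) to 100% (plants dead).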

[12] = system: Alopecurus myosuroides; assay: Post-emergence herbicidal action, ALOMY; format: in vivo; conditions: for herbicidal activity ALOMY: Table C
Method in brief: as §2

[13] = system: Avena fatua; assay: Post-emergence herbicidal action, AVEFA; format: in vivo; conditions: for herbicidal activity AVEFA: Table C
Method in brief: as §2

[14] = system: Pharbitis purpureum; assay: Post-emergence herbicidal action, PHBPU; format: in vivo; conditions: 80 g/ha, Table D
Method in brief: as §2

[15] = system: Setaria viridis; assay: Post-emergence herbicidal action, SETVI; format: in vivo; conditions: for herbicidal activity SETVI: Table C
Method in brief: as §2

[16] = system: Stellaria media; assay: Post-emergence herbicidal action, STEME; format: in vivo; conditions: for Herbicidal activity STEME: Table D
Method in brief: as §2

[17] = system: Viola tricolor; assay: Post-emergence herbicidal action, VIOTR; format: in vivo; conditions: for herbicidal activity VIOTR: Table D
Method in brief: as §2

[18] = system: ECHCG; assay: Post-emergence herbicidal action, ECHCG; format: in vivo; conditions: 80 g/ha, Table C
Method in brief: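 Weed and crop plants grown in sandy loam in the greenhouse, treated at the one-leaf stage 2–3 weeks after sowing. Damage scored visually after about 3 weeks vs untreated controls (0% = control, 100% = dead).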

[19] = system: ECHCG; assay: Pre-emergence herbicidal action, ECHCG; format: in vivo, Echinochloa crus-galli
[20] = system: Amaranthus retroflexus; assay: Post-emergence herbicidal action, AMARE; format: in vivo; conditions: 80 g/ha, Table D
Method in brief: as §2

Cc1c(C(=O)Nc2nnnn2C)ccc(C(F)F)c1S(C)(=O)=O [Example 1-3]
Herbicidal efficacy against ABUTH ([1]; dosage 20 g/ha): 100 | Herbicidal efficacy against ABUTH ([1]; dosage 80 g/ha): 100 | Herbicidal efficacy against ABUTH ([1]; dosage 320 g/ha): 100 | herbicidal activity ABUTH ([1]; dosage 320 g/ha): 100% | Herbicidal efficacy against ALOMY ([2]; 20 g/ha): 50 | Herbicidal efficacy against ALOMY ([2]; 80 g/ha): 90 | Herbicidal efficacy against ALOMY ([2]; 320 g/ha): 100 | herbicidal activity ALOMY [2]: 100% | herbicidal activity AMARE [3]: 100% | Herbicidal efficacy against AVEFA ([4]; 20 g/ha): 80 | Herbicidal efficacy against AVEFA ([4]; 80 g/ha): 100 | Herbicidal efficacy against AVEFA ([4]; 320 g/ha): 100 | herbicidal activity AVEFA [4]: 100% | Herbicidal efficacy against CYPES ([5]; 20 g/ha): 30 | Herbicidal efficacy against CYPES ([5]; 80 g/ha): 90 | Herbicidal efficacy against CYPES ([5]; 320 g/ha): 90 | herbicidal activity CYPES [5]: 90% | Herbicidal efficacy against MATIN ([6]; dosage 20 g/ha): 80 | Herbicidal efficacy against MATIN ([6]; dosage 80 g/ha): 100 | Herbicidal efficacy against MATIN ([6]; dosage 320 g/ha): 100 | herbicidal activity MATIN ([6]; dosage 320 g/ha): 100% | Herbicidal efficacy against POLCO ([7]; dosage 20 g/ha): 30 | Herbicidal efficacy against POLCO ([7]; dosage 80 g/ha): 90 | Herbicidal efficacy against POLCO ([7]; dosage 320 g/ha): 90 | Herbicidal efficacy against SETVI ([8]; 20 g/ha): 70 | Herbicidal efficacy against SETVI ([8]; 80 g/ha): 100 | Herbicidal efficacy against SETVI ([8]; 320 g/ha): 100 | herbicidal activity SETVI [8]: 100% | Herbicidal activity STEME [9]: 100% | Herbicidal efficacy against VIOTR ([10]; dosage 20 g/ha): 100 | Herbicidal efficacy against VIOTR ([10]; dosage 80 g/ha): 100 | Herbicidal efficacy against VIOTR ([10]; dosage 320 g/ha): 100 | herbicidal activity VIOTR ([10]; dosage 320 g/ha): 100% | herbicidal activity ABUTH [11]: 80% | Herbicidal efficacy against ALOMY ([12]; 5 g/ha): 60 | Herbicidal efficacy against ALOMY ([12]; 80 g/ha): 90 | herbicidal activity ALOMY ([12]; 80 g/ha): 90% | Herbicidal efficacy against AVEFA ([13]; 5 g/ha): 70 | Herbicidal efficacy against AVEFA ([13]; 80 g/ha): 100 | herbicidal activity AVEFA ([13]; 80 g/ha): 100% | Herbicidal activity PHBPU [14]: 100% | Herbicidal efficacy against SETVI ([15]; 5 g/ha): 90 | Herbicidal efficacy against SETVI ([15]; 80 g/ha): 90 | herbicidal activity SETVI ([15]; 80 g/ha): 90% | Herbicidal efficacy against STEME ([16]; 5 g/ha): 90 | Herbicidal efficacy against STEME ([16]; 80 g/ha): 100 | Herbicidal activity STEME ([16]; 80 g/ha): 100% | Herbicidal efficacy against VIOTR ([17]; 5 g/ha): 100 | Herbicidal efficacy against VIOTR ([17]; 80 g/ha): 100 | herbicidal activity VIOTR ([17]; 80 g/ha): 100% | Herbicidal activity ECHCG [18]: 90% | Herbicidal efficacy against ECHCG ([19]; 20 g/ha): 90 | Herbicidal efficacy against ECHCG ([19]; 80 g/ha): 100 | Herbicidal efficacy against ECHCG ([19]; 320 g/ha): 100

Cn1nnnc1NC(=O)c1ccc(C(F)F)c([S+](C)[O-])c1Cl (stereo not shown) [Example 1-50]
Herbicidal efficacy against ABUTH ([1]; dosage 20 g/ha): 100 | Herbicidal efficacy against ABUTH ([1]; dosage 80 g/ha): 100 | Herbicidal efficacy against ABUTH ([1]; dosage 320 g/ha): 100 | herbicidal activity ABUTH ([1]; dosage 320 g/ha): 100% | Herbicidal efficacy against ALOMY ([2]; 20 g/ha): 90 | Herbicidal efficacy against ALOMY ([2]; 80 g/ha): 100 | Herbicidal efficacy against ALOMY ([2]; 320 g/ha): 100 | herbicidal activity ALOMY [2]: 100% | herbicidal activity AMARE [3]: 100% | Herbicidal efficacy against AVEFA ([4]; 80 g/ha): 90 | Herbicidal efficacy against AVEFA ([4]; 320 g/ha): 100 | herbicidal activity AVEFA [4]: 100% | Herbicidal efficacy against CYPES ([5]; 20 g/ha): 70 | Herbicidal efficacy against CYPES ([5]; 80 g/ha): 100 | Herbicidal efficacy against CYPES ([5]; 320 g/ha): 100 | herbicidal activity CYPES [5]: 100% | Herbicidal efficacy against MATIN ([6]; dosage 20 g/ha): 90 | Herbicidal efficacy against MATIN ([6]; dosage 80 g/ha): 100 | Herbicidal efficacy against MATIN ([6]; dosage 320 g/ha): 100 | herbicidal activity MATIN ([6]; dosage 320 g/ha): 100% | Herbicidal efficacy against POLCO ([7]; dosage 80 g/ha): 80 | Herbicidal efficacy against POLCO ([7]; dosage 320 g/ha): 90 | Herbicidal efficacy against SETVI ([8]; 20 g/ha): 100 | Herbicidal efficacy against SETVI ([8]; 80 g/ha): 100 | Herbicidal efficacy against SETVI ([8]; 320 g/ha): 100 | herbicidal activity SETVI [8]: 100% | Herbicidal activity STEME [9]: 90% | Herbicidal efficacy against VIOTR ([10]; dosage 20 g/ha): 100 | Herbicidal efficacy against VIOTR ([10]; dosage 80 g/ha): 100 | Herbicidal efficacy against VIOTR ([10]; dosage 320 g/ha): 100 | herbicidal activity VIOTR ([10]; dosage 320 g/ha): 100% | herbicidal activity ABUTH [11]: 100% | herbicidal activity ALOMY ([12]; 80 g/ha): 100% | herbicidal activity AMARE [20]: 100% | herbicidal activity AVEFA ([13]; 80 g/ha): 100% | Herbicidal activity PHBPU [14]: 100% | herbicidal activity SETVI ([15]; 80 g/ha): 100% | Herbicidal activity STEME ([16]; 80 g/ha): 100% | herbicidal activity VIOTR ([17]; 80 g/ha): 100% | Herbicidal activity ECHCG [18]: 100% | Herbicidal efficacy against ECHCG ([19]; 20 g/ha): 90 | Herbicidal efficacy against ECHCG ([19]; 80 g/ha): 100 | Herbicidal efficacy against ECHCG ([19]; 320 g/ha): 100
